In patent publication US10399940B2, “Substituted pyrrolidines and methods of use” (AbbVie S.à.r.l., priority 2016, dated 2019):
Where two headings read alike, the source gives them in different places.

Target: T1, F508delCFTR (Homo sapiens, UniProt P13569, DEL508-508)
T1 construct: expressed in transfected cells; host or cells: CFBE41o- (human lung derived epithelial cell line), doxycycline-inducible expression
Assay: Cell Surface Expression-Horse Radish Peroxidase (CSE-HRP) assay
Assay type: cell-based
Conditions: CFBE41o-F508delCFTR-HRP cells; for Maximum % activity (with co-corrector): with co-corrector (2 μM); for Maximum % activity (with co-corrector) / Maximum % activity (without co-corrector): normalized to on-plate positive control, highest concentration 20 μM
Outline: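 CFBE41o- cells expressed F508delCFTR with HRP in the fourth exofacial loop, induced by 0.5 μg/mL doxycycline for 72 h at 37 °C. Compounds alone or with 2 μM co-corrector ran 18–24 h at 33 °C, 8-point 3-fold from 20 μM. Washed-cell luminol luminescence was normalized to DMSO and positive control, fitted sigmoidally for EC50 (three plates).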

[1] = test compound without co-corrector, 18-24 hours at 33° C., read-out: EC50 (without co-corrector)
[2] = with co-corrector (2 μM of 3-[(2R,4R)-4-({[1-(2,2-difluoro-1,3-benzodioxol-5-yl)cyclopropyl]carbonyl}amino)-7-methoxy-3,4-dihydro-2H-chromen-2-yl]benzoic acid), read-out: EC50 (with co-corrector)

T1 sequence (P13569 with tags, fused parts or gaps DEL508-508): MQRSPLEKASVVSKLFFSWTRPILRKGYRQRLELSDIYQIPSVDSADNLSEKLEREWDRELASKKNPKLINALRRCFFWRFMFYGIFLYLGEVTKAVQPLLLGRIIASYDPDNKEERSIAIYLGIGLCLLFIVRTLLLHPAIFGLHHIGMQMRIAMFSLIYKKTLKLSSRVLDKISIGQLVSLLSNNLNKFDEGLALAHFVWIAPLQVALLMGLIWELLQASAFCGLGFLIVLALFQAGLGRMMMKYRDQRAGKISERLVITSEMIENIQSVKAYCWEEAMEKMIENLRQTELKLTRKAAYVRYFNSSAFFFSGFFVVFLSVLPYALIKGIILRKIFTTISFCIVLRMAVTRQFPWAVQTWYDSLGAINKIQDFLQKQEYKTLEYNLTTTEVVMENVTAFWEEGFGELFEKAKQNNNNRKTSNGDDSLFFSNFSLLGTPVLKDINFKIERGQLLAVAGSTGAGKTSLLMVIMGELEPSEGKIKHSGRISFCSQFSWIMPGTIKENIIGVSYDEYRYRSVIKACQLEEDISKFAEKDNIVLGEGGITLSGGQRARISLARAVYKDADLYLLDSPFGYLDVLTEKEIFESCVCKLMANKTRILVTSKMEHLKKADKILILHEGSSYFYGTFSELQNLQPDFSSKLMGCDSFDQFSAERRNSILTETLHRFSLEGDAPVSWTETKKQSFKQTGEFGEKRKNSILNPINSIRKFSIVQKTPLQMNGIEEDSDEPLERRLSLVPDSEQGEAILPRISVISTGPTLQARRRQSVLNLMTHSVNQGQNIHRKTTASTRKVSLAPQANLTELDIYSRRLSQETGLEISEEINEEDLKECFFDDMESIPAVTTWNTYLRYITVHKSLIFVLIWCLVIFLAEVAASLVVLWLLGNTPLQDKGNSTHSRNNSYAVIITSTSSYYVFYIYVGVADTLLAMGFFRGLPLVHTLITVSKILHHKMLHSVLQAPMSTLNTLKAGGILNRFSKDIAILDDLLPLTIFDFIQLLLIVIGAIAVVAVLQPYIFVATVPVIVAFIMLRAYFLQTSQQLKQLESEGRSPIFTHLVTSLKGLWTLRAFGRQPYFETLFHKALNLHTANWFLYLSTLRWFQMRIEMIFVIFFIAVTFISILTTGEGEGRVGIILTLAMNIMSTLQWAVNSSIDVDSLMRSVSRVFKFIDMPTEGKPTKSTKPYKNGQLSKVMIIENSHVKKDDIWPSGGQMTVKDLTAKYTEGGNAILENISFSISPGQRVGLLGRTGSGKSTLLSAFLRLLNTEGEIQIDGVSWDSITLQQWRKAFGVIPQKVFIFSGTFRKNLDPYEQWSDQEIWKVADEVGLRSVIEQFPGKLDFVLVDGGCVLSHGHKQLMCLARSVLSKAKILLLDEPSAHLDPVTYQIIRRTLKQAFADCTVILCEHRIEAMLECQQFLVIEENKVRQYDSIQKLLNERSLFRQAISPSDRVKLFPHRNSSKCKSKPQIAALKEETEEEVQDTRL

EC50 [1] [nM]	EC50 [2] [nM]	Maximum % activity (with co-corrector)	Maximum % activity (without co-corrector)	SMILES
1000 to 10000	< 1000	+++ (≥350)	++ (≥100 and <200)	COc1ncc(C(F)(F)F)cc1CO[C@H]1[C@H](C(C)(C)C)[C@@H](C(=O)O)N(C(=O)[C@@H]2CCCCO2)[C@H]1c1cccc(Cl)c1 [Example 123, (2S,3R,4S,5S)-3-tert-butyl-5-(3-chlorophenyl)-4-{[2-methoxy-5-(trifluoromethyl)pyridin-3-yl]methoxy}-1-[(2S)-oxane-2-carbonyl]pyrrolidine-2-carboxylic acid]
< 1000	< 1000	++ (≥150 and <350)	+ (<100)	COc1ncc(C(F)(F)F)cc1CO[C@H]1[C@H](C(C)(C)C)[C@@H](C(=O)O)N(C(=O)[C@H]2CCCCO2)[C@H]1c1cccc(Cl)c1 [Example 125, (2S,3R,4S,5S)-3-tert-butyl-5-(3-chlorophenyl)-4-{[2-methoxy-5-(trifluoromethyl)pyridin-3-yl]methoxy}-1-[(2R)-oxane-2-carbonyl]pyrrolidine-2-carboxylic acid]
1000 to 10000	< 1000	+++ (≥350)	++ (≥100 and <200)	COc1ncc(C(F)(F)F)cc1CO[C@H]1[C@H](C(C)(C)C)[C@@H](C(=O)O)N(C(=O)[C@@H]2CCCCO2)[C@H]1c1ccccc1C1CC1 [Example 128, (2S,3R,4S,5S)-3-tert-butyl-5-(2-cyclopropylphenyl)-4-{[2-methoxy-5-(trifluoromethyl)pyridin-3-yl]methoxy}-1-[(2S)-oxane-2-carbonyl]pyrrolidine-2-carboxylic acid]
1000 to 10000	< 1000	+++ (≥350)	++ (≥100 and <200)	COc1ncc(C(F)(F)F)cc1CO[C@H]1[C@H](C(C)(C)C)[C@@H](C(=O)O)N(C(=O)[C@@H]2CCCO2)[C@H]1c1ccccc1C [Example 129, (2S,3R,4S,5S)-3-tert-butyl-4-{[2-methoxy-5-(trifluoromethyl)pyridin-3-yl]methoxy}-5-(2-methylphenyl)-1-[(2S)-oxolane-2-carbonyl]pyrrolidine-2-carboxylic acid]
< 1000	< 1000	++ (≥150 and <350)	+ (<100)	COc1nc2ccccc2cc1CO[C@H]1[C@H](C(C)(C)C)[C@@H](C(=O)O)N(C(=O)[C@H]2CCCCO2)[C@H]1c1ccccc1C(C)C [Example 131, (2S,3R,4S,5S)-3-tert-butyl-4-[(2-methoxyquinolin-3-yl)methoxy]-1-[(2R)-oxane-2-carbonyl]-5-[2-(propan-2-yl)phenyl]pyrrolidine-2-carboxylic acid]
1000 to 10000	1000 to 10000	++ (≥150 and <350)	++ (≥100 and <200)	COc1ncc(C2CCC2)cc1CO[C@H]1[C@H](C(C)(C)C)[C@@H](C(=O)O)N(C(=O)C2CCOCC2)[C@H]1c1cccnc1OC(C)C [Example 134, (2S,3R,4S,5S)-3-tert-butyl-4-[(5-cyclobutyl-2-methoxypyridin-3-yl)methoxy]-1-(oxane-4-carbonyl)-5-{2-[(propan-2-yl)oxy]pyridin-3-yl}pyrrolidine-2-carboxylic acid]
1000 to 10000	< 1000	++ (≥150 and <350)	++ (≥100 and <200)	COc1nc2ccccc2cc1CO[C@H]1[C@H](C(C)(C)C)[C@@H](C(=O)O)N(C(=O)OC(C)C)[C@H]1c1ccccc1Br [Example 137, (2S,3R,4S,5S)-5-(2-bromophenyl)-3-tert-butyl-4-[(2-methoxyquinolin-3-yl)methoxy]-1-{[(propan-2-yl)oxy]carbonyl}pyrrolidine-2-carboxylic acid]

The remaining lines, values behind:

SMILES	EC50 [1] [nM]	EC50 [2] [nM]	Maximum % activity (with co-corrector)	Maximum % activity (without co-corrector)
COc1ncc(C(F)(F)F)cc1CO[C@H]1[C@H](C(C)(C)C)[C@@H](C(=O)O)N(C(=O)OC(C)C)[C@H]1c1cccc(Br)c1 [Example 124, (2S,3R,4S,5S)-5-(3-bromophenyl)-3-tert-butyl-4-{[2-methoxy-5-(trifluoromethyl)pyridin-3-yl]methoxy}-1-{[(propan-2-yl)oxy]carbonyl}pyrrolidine-2-carboxylic acid]	1000 to 10000	< 1000	++ (≥150 and <350)	+ (<100)
COc1ncc(C(F)(F)F)cc1CO[C@@H]1[C@H](C(C)(C)C)[C@@H](C(=O)O)N(C(=O)[C@@H]2CCCO2)[C@H]1c1ccccc1Br [Example 126, (2S,3R,4R,5S)-5-(2-bromophenyl)-3-tert-butyl-4-{[2-methoxy-5-(trifluoromethyl)pyridin-3-yl]methoxy}-1-[(2S)-oxolane-2-carbonyl]pyrrolidine-2-carboxylic acid]	> 10000	> 10000	+ (<150)	+ (<100)
COc1ncc(C(F)(F)F)cc1CO[C@H]1[C@H](C(C)(C)C)[C@@H](C(=O)O)N(C(=O)[C@@H]2CCCO2)[C@H]1c1ccnn1C(C)C [Example 127, (2S,3R,4S,5S)-3-tert-butyl-4-{[2-methoxy-5-(trifluoromethyl)pyridin-3-yl]methoxy}-1-[(2S)-oxolane-2-carbonyl]-5-[1-(propan-2-yl)-1H-pyrazol-5-yl]pyrrolidine-2-carboxylic acid]	> 10000	> 10000	+ (<150)	+ (<100)
COc1ncc(C2CCC2)cc1CO[C@H]1[C@H](C(C)(C)C)[C@@H](C(=O)O)N(C(=O)[C@@H]2CCCO2)[C@H]1c1ccccc1C(C)C [Example 130, (2S,3R,4S,5S)-3-tert-butyl-4-[(5-cyclobutyl-2-methoxypyridin-3-yl)methoxy]-1-[(2S)-oxolane-2-carbonyl]-5-[2-(propan-2-yl)phenyl]pyrrolidine-2-carboxylic acid]	< 1000	< 1000	+++ (≥350)	++ (≥100 and <200)
COc1nc2ccccc2cc1CO[C@H]1[C@H](C(C)(C)C)[C@@H](C(=O)O)N(C(=O)[C@@H]2CCCCO2)[C@H]1c1ccccc1C(C)C [Example 132, (2S,3R,4S,5S)-3-tert-butyl-4-[(2-methoxyquinolin-3-yl)methoxy]-1-[(2S)-oxane-2-carbonyl]-5-[2-(propan-2-yl)phenyl]pyrrolidine-2-carboxylic acid]	1000 to 10000	< 1000	+++ (≥350)	++ (≥100 and <200)
COc1ncc(C2CCC2)cc1CO[C@H]1[C@H](C(C)(C)C)[C@@H](C(=O)O)N(C(=O)[C@@H]2CCCO2)[C@H]1c1cccnc1OC(C)C [Example 133, (2S,3R,4S,5S)-3-tert-butyl-4-[(5-cyclobutyl-2-methoxypyridin-3-yl)methoxy]-1-[(2S)-oxolane-2-carbonyl]-5-{2-[(propan-2-yl)oxy]pyridin-3-yl}pyrrolidine-2-carboxylic acid]	1000 to 10000	1000 to 10000	+++ (≥350)	++ (≥100 and <200)
COc1ncc(C2CCC2)cc1CO[C@H]1[C@H](C(C)(C)C)[C@@H](C(=O)O)N(C(=O)[C@H]2CCCCO2)[C@H]1c1cccnc1OC(C)C [Example 135, (2S,3R,4S,5S)-3-tert-butyl-4-[(5-cyclobutyl-2-methoxypyridin-3-yl)methoxy]-1-[(2R)-oxane-2-carbonyl]-5-{2-[(propan-2-yl)oxy]pyridin-3-yl}pyrrolidine-2-carboxylic acid]	1000 to 10000	< 1000	+++ (≥350)	++ (≥100 and <200)
COc1ncc(C2CCC2)cc1CO[C@H]1[C@H](C(C)(C)C)[C@@H](C(=O)O)N(C(=O)[C@@H]2CCCCO2)[C@H]1c1cccnc1OC(C)C [Example 136, (2S,3R,4S,5S)-3-tert-butyl-4-[(5-cyclobutyl-2-methoxypyridin-3-yl)methoxy]-1-[(2S)-oxane-2-carbonyl]-5-{2-[(propan-2-yl)oxy]pyridin-3-yl}pyrrolidine-2-carboxylic acid]	< 1000	< 1000	+++ (≥350)	++ (≥100 and <200)
COc1ncc(C2CCC2)cc1CO[C@H]1[C@H](C(C)(C)C)[C@@H](C(=O)O)N(C(=O)OC(C)C)[C@H]1c1ccccc1Br [Example 138, (2S,3R,4S,5S)-5-(2-bromophenyl)-3-tert-butyl-4-[(5-cyclobutyl-2-methoxypyridin-3-yl)methoxy]-1-{[(propan-2-yl)oxy]carbonyl}pyrrolidine-2-carboxylic acid]	< 1000	< 1000	+++ (≥350)	++ (≥100 and <200)
COc1nc2ccccc2cc1CO[C@H]1[C@H](C(C)(C)C)[C@@H](C(=O)O)N(C(=O)[C@@H]2CCCO2)[C@H]1c1ccccc1C1CC1 [Example 139, (2S,3R,4S,5S)-3-tert-butyl-5-(2-cyclopropylphenyl)-4-[(2-methoxyquinolin-3-yl)methoxy]-1-[(2S)-oxolane-2-carbonyl]pyrrolidine-2-carboxylic acid]	1000 to 10000	< 1000	+++ (≥350)	++ (≥100 and <200)
